Experimental data reported in PMC11233931, “Remodeling tumor‐associated macrophage for anti‐cancer effects by rational design of irreversible inhibition of mitogen‐activated protein kinase‐activated protein kinase 2” (MedComm, 2024).

Columns and labels:
Test in all cases: Eurofins kinase selectivity profile against 380 other human recombinant kinases (Table S2)
Type in all cases: biochemical
[1] = target: T1, 380 human recombinant protein kinases (Homo sapiens, UniProt O94921); conditions: CDK14/cyclinY(h), read-out: Inhibition rate
T1 construct: purchased Eurofins (Celle Lévescault)
Procedure, shortened: (§1)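 Profiling against 380 human recombinant kinases carried out by Eurofins at various compound concentrations.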

[2] = target: T2, 380 human recombinant protein kinases (Homo sapiens, UniProt O00418); conditions: eEF-2K(h), read-out: Inhibition rate
T2 construct: purchased Eurofins (Celle Lévescault)
T2 sequence (O00418 1-725): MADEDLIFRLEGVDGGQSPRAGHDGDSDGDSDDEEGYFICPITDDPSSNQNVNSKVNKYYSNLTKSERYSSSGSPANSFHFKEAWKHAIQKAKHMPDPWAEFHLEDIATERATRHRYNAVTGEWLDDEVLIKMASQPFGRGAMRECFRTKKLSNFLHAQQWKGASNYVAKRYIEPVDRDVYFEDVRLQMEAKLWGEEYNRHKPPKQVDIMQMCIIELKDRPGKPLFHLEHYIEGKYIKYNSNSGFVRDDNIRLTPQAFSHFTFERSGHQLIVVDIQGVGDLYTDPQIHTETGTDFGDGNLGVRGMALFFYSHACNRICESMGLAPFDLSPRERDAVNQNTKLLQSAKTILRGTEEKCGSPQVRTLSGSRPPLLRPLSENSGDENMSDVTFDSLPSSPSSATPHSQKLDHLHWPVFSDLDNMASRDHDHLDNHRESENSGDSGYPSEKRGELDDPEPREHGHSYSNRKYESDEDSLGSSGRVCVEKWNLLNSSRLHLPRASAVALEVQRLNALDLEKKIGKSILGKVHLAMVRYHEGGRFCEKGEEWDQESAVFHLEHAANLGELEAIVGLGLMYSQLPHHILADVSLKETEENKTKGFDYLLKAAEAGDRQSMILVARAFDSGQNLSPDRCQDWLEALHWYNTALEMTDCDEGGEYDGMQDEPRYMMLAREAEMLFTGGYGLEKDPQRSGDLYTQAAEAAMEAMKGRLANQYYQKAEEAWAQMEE
Procedure, shortened: as §1

[3] = target: T3, 380 human recombinant protein kinases (Homo sapiens, UniProt Q9Y4K4); conditions: MAP4K5(h), read-out: Inhibition rate
T3 construct: purchased Eurofins (Celle Lévescault)
Procedure, shortened: as §1

[4] = target: T4, 380 human recombinant protein kinases (Homo sapiens, UniProt P41743); conditions: PKCι(h), read-out: Inhibition rate
T4 construct: purchased Eurofins (Celle Lévescault)
T4 sequence (P41743 1-596): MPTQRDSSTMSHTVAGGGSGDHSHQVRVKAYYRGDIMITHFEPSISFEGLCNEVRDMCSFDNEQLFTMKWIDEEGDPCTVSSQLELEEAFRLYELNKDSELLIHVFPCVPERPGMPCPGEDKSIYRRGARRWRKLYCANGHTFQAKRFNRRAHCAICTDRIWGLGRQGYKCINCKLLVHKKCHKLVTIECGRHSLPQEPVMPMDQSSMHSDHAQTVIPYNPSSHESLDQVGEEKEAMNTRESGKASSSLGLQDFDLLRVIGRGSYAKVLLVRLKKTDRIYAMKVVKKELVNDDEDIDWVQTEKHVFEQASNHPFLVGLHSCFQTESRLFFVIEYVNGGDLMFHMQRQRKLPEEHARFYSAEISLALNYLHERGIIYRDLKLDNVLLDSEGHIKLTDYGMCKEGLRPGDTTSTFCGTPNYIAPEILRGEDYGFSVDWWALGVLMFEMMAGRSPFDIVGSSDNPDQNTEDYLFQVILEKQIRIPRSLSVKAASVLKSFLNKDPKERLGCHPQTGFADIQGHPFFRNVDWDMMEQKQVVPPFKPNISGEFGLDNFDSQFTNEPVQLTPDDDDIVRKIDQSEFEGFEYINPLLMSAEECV
Procedure, shortened: as §1

T3 sequence (Q9Y4K4 whole entry): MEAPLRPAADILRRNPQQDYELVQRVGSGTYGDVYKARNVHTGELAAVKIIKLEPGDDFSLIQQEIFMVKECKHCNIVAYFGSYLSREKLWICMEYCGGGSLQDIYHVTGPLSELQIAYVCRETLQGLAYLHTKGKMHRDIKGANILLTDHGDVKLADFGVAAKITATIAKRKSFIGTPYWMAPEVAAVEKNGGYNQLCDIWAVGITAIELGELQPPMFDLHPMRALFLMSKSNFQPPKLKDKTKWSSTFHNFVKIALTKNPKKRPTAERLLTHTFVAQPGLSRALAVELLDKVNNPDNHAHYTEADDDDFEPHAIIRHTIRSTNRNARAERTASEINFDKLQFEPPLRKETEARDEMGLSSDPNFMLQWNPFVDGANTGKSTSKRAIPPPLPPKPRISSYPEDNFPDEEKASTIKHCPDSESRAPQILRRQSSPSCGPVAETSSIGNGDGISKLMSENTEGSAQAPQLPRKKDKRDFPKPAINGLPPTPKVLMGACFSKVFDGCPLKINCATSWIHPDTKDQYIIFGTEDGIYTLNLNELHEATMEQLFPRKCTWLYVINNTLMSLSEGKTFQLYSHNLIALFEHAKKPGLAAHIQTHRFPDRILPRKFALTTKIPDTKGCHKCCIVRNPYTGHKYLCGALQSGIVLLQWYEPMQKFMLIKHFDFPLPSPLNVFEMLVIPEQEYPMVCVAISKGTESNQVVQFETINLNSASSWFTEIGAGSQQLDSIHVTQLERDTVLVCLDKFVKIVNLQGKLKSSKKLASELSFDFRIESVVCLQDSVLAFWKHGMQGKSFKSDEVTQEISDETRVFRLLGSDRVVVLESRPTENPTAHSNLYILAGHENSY
T1 sequence (O94921 whole entry): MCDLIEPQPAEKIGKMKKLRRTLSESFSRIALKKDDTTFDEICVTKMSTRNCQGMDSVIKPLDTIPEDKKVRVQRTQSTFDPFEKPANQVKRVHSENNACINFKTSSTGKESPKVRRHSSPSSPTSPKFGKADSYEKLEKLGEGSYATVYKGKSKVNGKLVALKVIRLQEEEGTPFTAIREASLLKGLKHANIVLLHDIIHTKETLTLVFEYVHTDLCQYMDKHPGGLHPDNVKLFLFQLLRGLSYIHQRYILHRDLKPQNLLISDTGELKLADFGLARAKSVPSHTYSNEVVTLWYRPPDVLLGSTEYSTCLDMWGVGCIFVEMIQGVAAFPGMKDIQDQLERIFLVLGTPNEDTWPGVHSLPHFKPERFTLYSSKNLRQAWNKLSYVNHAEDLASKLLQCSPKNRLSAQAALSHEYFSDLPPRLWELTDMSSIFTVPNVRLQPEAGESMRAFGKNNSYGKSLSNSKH

In the case of C=CC(=O)Nc1cc(-c2cc(-c3cc4c([nH]3)CCNC4=O)ccn2)ccc1OC(F)(F)F [compound 11], the inhibition at 0.01 µM ([1]; 10 nM) is reported as -2%, the inhibition at 0.1 µM ([1]; 100 nM) is reported as 7% and the inhibition at 1 µM ([1]; 1000 nM) is reported as 4%. For the same compound, the inhibition at 0.01 µM ([2]; 10 nM) was -4%, the inhibition at 0.1 µM ([2]; 100 nM) was -10% and the inhibition at 1 µM ([2]; 1000 nM) was -27%. The inhibition at 0.01 µM ([3]; 10 nM) was -7%, the inhibition at 0.1 µM ([3]; 100 nM) was -5% and the inhibition at 1 µM ([3]; 1000 nM) was 12%. For the same compound, the inhibition at 0.01 µM ([4]; 10 nM) was 0%, the inhibition at 0.1 µM ([4]; 100 nM) was 5% and the inhibition at 1 µM ([4]; 1000 nM) was 8%.
